# Laboratory results as given in ChEMBL document CHEMBL3885881, “DrugMatrix”.
# Species: Rattus norvegicus
# Assay: DrugMatrix - Regimen: Daily Repeat
# Assay type: toxicity, organism-based, Sprague-Dawley
# Design: regimen Daily Repeat, gender Male, age 6-8 weeks
# Conditions: in vivo, po, route oral GAVAGE, […]; for ABSOLUTE BASOPHIL / ABSOLUTE EOSINOPHIL / ABSOLUTE LYMPHOCYTE / ABSOLUTE MONOCYTE / ABSOLUTE SEGMENTED NEUTROPHIL / BASOPHIL / EOSINOPHIL / ERYTHROCYTE COUNT / HEMATOCRIT / HEMOGLOBIN / LEUKOCYTE COUNT / LYMPHOCYTE / MEAN CORPUSCULAR HEMOGLOBIN / MEAN CORPUSCULAR HEMOGLOBIN CONCENTRATION / MEAN CORPUSCULAR VOLUME / MONOCYTE / NEUTROPHIL / NUCLEATED RED BLOOD CELLS / PLATELET COUNT: tissue Blood; for ALANINE AMINOTRANSFERASE / ALBUMIN / ALKALINE PHOSPHATASE / ASPARTATE AMINOTRANSFERASE / BLOOD UREA NITROGEN / CARBON DIOXIDE / CHLORIDE / CHOLESTEROL / CREATINE PHOSPHOKINASE / CREATININE / GLUCOSE / LACTATE DEHYDROGENASE / LIPASE / PHOSPHORUS / POTASSIUM / SODIUM / TOTAL BILIRUBIN / TOTAL PROTEIN / URIC ACID: tissue Plasma
# [1] = 0 mg/kg, 72 h, dose level Control, time 3 day
# [2] = 0 mg/kg, 120 h, dose level Control, time 5 day
# [3] = 3 mg/kg, 72 h, dose level Low, time 3 day
structure (smiles),measurement,setting,value
CS(=O)(=O)c1ccc(C2=C(c3ccccc3)C(=O)OC2)cc1 [ROFECOXIB],ABSOLUTE BASOPHIL,[1],0 CELLS/uL
same,ABSOLUTE EOSINOPHIL,[1],0 CELLS/uL
same,ABSOLUTE LYMPHOCYTE,[1],6275.67 CELLS/uL
same,ABSOLUTE MONOCYTE,[1],40.67 CELLS/uL
same,ABSOLUTE SEGMENTED NEUTROPHIL,[1],633.67 CELLS/uL
same,BASOPHIL,[1],0%
same,EOSINOPHIL,[1],0%
same,ERYTHROCYTE COUNT,[1],5.2 x10E6/uL
same,HEMATOCRIT,[1],32.78%
same,HEMOGLOBIN,[1],12.98 G/DL
same,LEUKOCYTE COUNT,[1],6.95 x10E3/uL
same,LYMPHOCYTE,[1],90.17%
same,MEAN CORPUSCULAR HEMOGLOBIN,[1],24.97 pg
same,MEAN CORPUSCULAR HEMOGLOBIN CONCENTRATION,[1],39.62 G/DL
same,MEAN CORPUSCULAR VOLUME,[1],63.03 fL
same,MONOCYTE,[1],0.67%
same,NEUTROPHIL,[1],9.17%
same,NUCLEATED RED BLOOD CELLS,[1],0 /100WBC
same,PLATELET COUNT,[1],1082.83 x10E3/uL
same,ALANINE AMINOTRANSFERASE,[1],69.67 u/L
same,ALBUMIN,[1],4.15 G/DL
same,ALKALINE PHOSPHATASE,[1],430.5 u/L
same,ASPARTATE AMINOTRANSFERASE,[1],90.83 u/L
same,BLOOD UREA NITROGEN,[1],13 mg/dL
same,CARBON DIOXIDE,[1],33 mmol/L
same,CHLORIDE,[1],99.17 MEQ/L
same,CHOLESTEROL,[1],70.5 mg/dL
same,CREATINE PHOSPHOKINASE,[1],253.33 u/L
same,CREATININE,[1],0.13 mg/dL
same,GLUCOSE,[1],157.17 mg/dL
same,LACTATE DEHYDROGENASE,[1],85 u/L
same,LIPASE,[1],10 u/L
same,PHOSPHORUS,[1],10.2 mg/dL
same,POTASSIUM,[1],5.78 MEQ/L
same,SODIUM,[1],144.12 MEQ/L
same,TOTAL BILIRUBIN,[1],0.2 mg/dL
same,TOTAL PROTEIN,[1],5.8 G/DL
same,URIC ACID,[1],0.8 mg/dL
same,ABSOLUTE BASOPHIL,[2],0 CELLS/uL
same,ABSOLUTE EOSINOPHIL,[2],0 CELLS/uL
same,ABSOLUTE LYMPHOCYTE,[2],10431 CELLS/uL
same,ABSOLUTE MONOCYTE,[2],90.5 CELLS/uL
same,ABSOLUTE SEGMENTED NEUTROPHIL,[2],1111.83 CELLS/uL
same,BASOPHIL,[2],0%
same,EOSINOPHIL,[2],0%
same,ERYTHROCYTE COUNT,[2],5.51 x10E6/uL
same,HEMATOCRIT,[2],34.67%
same,HEMOGLOBIN,[2],13.5 G/DL
same,LEUKOCYTE COUNT,[2],11.63 x10E3/uL
same,LYMPHOCYTE,[2],89.67%
same,MEAN CORPUSCULAR HEMOGLOBIN,[2],24.5 pg
same,MEAN CORPUSCULAR HEMOGLOBIN CONCENTRATION,[2],38.95 G/DL
same,MEAN CORPUSCULAR VOLUME,[2],62.87 fL
same,MONOCYTE,[2],0.67%
same,NEUTROPHIL,[2],9.67%
same,NUCLEATED RED BLOOD CELLS,[2],0 /100WBC
same,PLATELET COUNT,[2],1052.67 x10E3/uL
same,ALANINE AMINOTRANSFERASE,[2],54.67 u/L
same,ALBUMIN,[2],4.15 G/DL
same,ALKALINE PHOSPHATASE,[2],359.83 u/L
same,ASPARTATE AMINOTRANSFERASE,[2],83 u/L
same,BLOOD UREA NITROGEN,[2],13.5 mg/dL
same,CARBON DIOXIDE,[2],27.17 mmol/L
same,CHLORIDE,[2],98.5 MEQ/L
same,CHOLESTEROL,[2],66.83 mg/dL
same,CREATINE PHOSPHOKINASE,[2],256.17 u/L
same,CREATININE,[2],0.19 mg/dL
same,GLUCOSE,[2],171.33 mg/dL
same,LACTATE DEHYDROGENASE,[2],91.5 u/L
same,LIPASE,[2],10.5 u/L
same,PHOSPHORUS,[2],8.72 mg/dL
same,POTASSIUM,[2],5.34 MEQ/L
same,SODIUM,[2],142.53 MEQ/L
same,TOTAL BILIRUBIN,[2],0.2 mg/dL
same,TOTAL PROTEIN,[2],6.05 G/DL
same,URIC ACID,[2],0.6 mg/dL
same,ABSOLUTE BASOPHIL,[3],0 CELLS/uL
same,ABSOLUTE EOSINOPHIL,[3],85.33 CELLS/uL
same,ABSOLUTE LYMPHOCYTE,[3],8896 CELLS/uL
same,ABSOLUTE MONOCYTE,[3],157.33 CELLS/uL
same,ABSOLUTE SEGMENTED NEUTROPHIL,[3],594.67 CELLS/uL
same,BASOPHIL,[3],0%
same,EOSINOPHIL,[3],0.67%
same,ERYTHROCYTE COUNT,[3],4.87 x10E6/uL
same,HEMATOCRIT,[3],31.33%
same,HEMOGLOBIN,[3],12.37 G/DL
same,LEUKOCYTE COUNT,[3],9.73 x10E3/uL
same,LYMPHOCYTE,[3],92%
same,MEAN CORPUSCULAR HEMOGLOBIN,[3],25.37 pg
same,MEAN CORPUSCULAR HEMOGLOBIN CONCENTRATION,[3],39.47 G/DL
same,MEAN CORPUSCULAR VOLUME,[3],64.27 fL
same,MONOCYTE,[3],1.33%
same,NEUTROPHIL,[3],6%
same,NUCLEATED RED BLOOD CELLS,[3],0 /100WBC
same,PLATELET COUNT,[3],1073 x10E3/uL
same,ALANINE AMINOTRANSFERASE,[3],72.67 u/L
same,ALBUMIN,[3],3.97 G/DL
same,ALKALINE PHOSPHATASE,[3],379.67 u/L
same,ASPARTATE AMINOTRANSFERASE,[3],91.33 u/L
same,BLOOD UREA NITROGEN,[3],11.33 mg/dL
same,CARBON DIOXIDE,[3],30.33 mmol/L
same,CHLORIDE,[3],103.33 MEQ/L
same,CHOLESTEROL,[3],80.33 mg/dL
same,CREATINE PHOSPHOKINASE,[3],195.67 u/L
same,CREATININE,[3],0.12 mg/dL
same,GLUCOSE,[3],156 mg/dL
same,LACTATE DEHYDROGENASE,[3],80 u/L
same,LIPASE,[3],9.67 u/L
same,PHOSPHORUS,[3],11.1 mg/dL
same,POTASSIUM,[3],6.21 MEQ/L
same,SODIUM,[3],149.03 MEQ/L
same,TOTAL BILIRUBIN,[3],0.1 mg/dL
same,TOTAL PROTEIN,[3],5.43 G/DL
same,URIC ACID,[3],0.7 mg/dL
